The target of one test is T1, NBD1 (Homo sapiens, UniProt P13569).
T1 construct: Purified recombinant NBD1 was produced using previously described methods; made in house
Put plainly: Aggregation analysis using differential static light scattering (DSLS), thermal stability of NBD1 (ΔTagg). In kind it is binding. Conditions: ΔTagg versus DMSO control, NBD1 0.2 mg/ml. A digest of the protocol:
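Purified recombinant NBD1 at 0.2 mg/ml in Tris buffer pH7.6 with 2 mM ATP, 5 mM MgCl2, 2 mM DTT and 1% glycerol was mixed with DMSO-dissolved compounds under mineral oil. Plates were heated at 1° C. per minute to 70° C., light scattering imaged every 0.5° C.; Tagg from curve inflection, minus DMSO-control mean.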

Another test deals with T2, CFTR (Homo sapiens, UniProt P13569, DEL508-508).
T2 construct: Primary human bronchial epithelial cells from a ΔF508 homozygous CF donor; host or cells: primary human bronchial epithelial cells (CF-HBE), ΔF508 homozygous donor
The test can be described thus: TECC24 AUC fold over DMSO @10 μM, CFTR-mediated transepithelial chloride transport in CF-HBE cells. In kind it is cell-based. Conditions: test agent AUC divided by DMSO vehicle AUC, primary CF-HBE cells, ΔF508 homozygous donor, 48 hours incubation. A digest of the protocol:
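ΔF508-homozygous primary bronchial epithelial cells incubated 48 h at 36.5° C with compound (10 μM) in IL-13-containing medium, then TECC24 current-clamp recording in pH 7.4 Hepes saline with benzamil 10 μM, forskolin 10 μM, then CFTR inhibitor-172 20 μM. Equivalent Cl− current AUC between forskolin and inhibitor, expressed as fold over DMSO.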

T2 sequence (P13569 with tags, fused parts or gaps DEL508-508): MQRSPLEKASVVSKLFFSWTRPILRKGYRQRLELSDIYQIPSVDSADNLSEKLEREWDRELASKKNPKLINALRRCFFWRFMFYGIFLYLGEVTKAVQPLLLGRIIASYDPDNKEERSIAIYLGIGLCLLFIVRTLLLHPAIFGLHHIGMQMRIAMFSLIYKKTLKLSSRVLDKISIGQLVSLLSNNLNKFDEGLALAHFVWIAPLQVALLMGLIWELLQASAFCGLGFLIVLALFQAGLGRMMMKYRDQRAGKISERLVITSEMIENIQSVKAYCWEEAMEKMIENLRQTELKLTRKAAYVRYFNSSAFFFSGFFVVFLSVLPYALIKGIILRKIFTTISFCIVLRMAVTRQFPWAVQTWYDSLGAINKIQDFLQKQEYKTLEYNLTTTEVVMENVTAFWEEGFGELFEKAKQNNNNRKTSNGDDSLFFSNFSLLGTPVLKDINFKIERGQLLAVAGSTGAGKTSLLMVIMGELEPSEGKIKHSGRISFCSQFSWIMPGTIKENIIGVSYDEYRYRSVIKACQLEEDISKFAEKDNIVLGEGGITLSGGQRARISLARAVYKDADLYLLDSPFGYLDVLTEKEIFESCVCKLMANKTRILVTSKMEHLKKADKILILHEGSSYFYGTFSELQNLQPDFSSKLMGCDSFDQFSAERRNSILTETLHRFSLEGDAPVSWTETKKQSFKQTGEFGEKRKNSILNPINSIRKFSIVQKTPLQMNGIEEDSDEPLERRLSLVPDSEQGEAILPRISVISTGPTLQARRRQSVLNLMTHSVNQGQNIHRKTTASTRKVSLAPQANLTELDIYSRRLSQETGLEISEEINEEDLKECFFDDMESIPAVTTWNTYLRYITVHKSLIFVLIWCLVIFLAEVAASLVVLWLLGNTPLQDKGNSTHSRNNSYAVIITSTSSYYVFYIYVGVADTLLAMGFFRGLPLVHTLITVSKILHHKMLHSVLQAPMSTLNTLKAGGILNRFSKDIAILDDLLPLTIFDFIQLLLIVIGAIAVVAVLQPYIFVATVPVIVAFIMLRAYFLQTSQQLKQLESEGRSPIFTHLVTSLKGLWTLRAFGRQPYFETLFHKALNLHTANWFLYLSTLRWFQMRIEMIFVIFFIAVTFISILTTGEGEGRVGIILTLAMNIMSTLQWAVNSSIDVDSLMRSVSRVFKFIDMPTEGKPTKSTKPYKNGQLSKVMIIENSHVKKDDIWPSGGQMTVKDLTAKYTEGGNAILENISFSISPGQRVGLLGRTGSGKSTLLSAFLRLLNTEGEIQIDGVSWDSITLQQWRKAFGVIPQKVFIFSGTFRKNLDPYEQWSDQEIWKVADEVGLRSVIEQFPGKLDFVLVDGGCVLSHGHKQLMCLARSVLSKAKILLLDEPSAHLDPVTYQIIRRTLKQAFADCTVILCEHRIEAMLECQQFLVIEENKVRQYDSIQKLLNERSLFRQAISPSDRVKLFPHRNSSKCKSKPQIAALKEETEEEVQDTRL
T1 sequence (P13569 423-646 limits assumed): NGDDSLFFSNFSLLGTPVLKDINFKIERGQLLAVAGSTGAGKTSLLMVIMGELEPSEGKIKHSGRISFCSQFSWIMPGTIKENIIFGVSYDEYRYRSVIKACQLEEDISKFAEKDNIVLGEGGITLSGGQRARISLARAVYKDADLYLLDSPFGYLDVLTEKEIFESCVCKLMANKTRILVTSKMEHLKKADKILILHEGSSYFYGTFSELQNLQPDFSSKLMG

`Cn1nc2nc1-c1cc(ccc1F)Oc1c(F)cc3[nH]ccc3c1CCS(=O)(=O)CC(C)(C)CCCC2(C)c1cccc(CC(O)CO)c1` (single isomer, unassigned) [Compound 97A, 3-[3-(22,28-difluoro-3,6,10,10-tetramethyl-12,12-dioxo-24-oxa-12λ6-thia-3,4,19,30-tetrazapentacyclo[23.3.1.12,5.015,23.016,20]triaconta-1(29),2(30),4,15,17,20,22,25,27-nonaen-6-yl)phenyl]propane-1,2-diol]: the “DSLS 3D (100 μM ΔT)” value on NBD1 is “C (a value greater than 10 °C and less than or equal to 25 °C is marked “C”)”. For the same molecule, the “TECC (AUC, 10 μM)” value on CFTR is recorded as “A (a TECC value less than 12 is marked “A”)”.

As for `Cn1nc2nc1-c1cc(ccc1F)Oc1c(F)cc3[nH]ccc3c1CCS(=O)(=O)CC(C)(C)CCCC2(C)c1cccc(CC(O)CO)c1` (single isomer, unassigned) [Compound 97B, 3-[3-(22,28-difluoro-3,6,10,10-tetramethyl-12,12-dioxo-24-oxa-12λ6-thia-3,4,19,30-tetrazapentacyclo[23.3.1.12,5.015,23.016,20]triaconta-1(29),2(30),4,15,17,20,22,25,27-nonaen-6-yl)phenyl]propane-1,2-diol], the “DSLS 3D (100 μM ΔT)” value at NBD1 was “A (an ΔTagg value less than or equal to 5 °C is marked “A”)”. At CFTR, the “TECC (AUC, 10 μM)” value was “A (a TECC value less than 12 is marked “A”)”.

As for `[2H]C([2H])([2H])C1(c2cccc(CCC(=O)O)c2)CCCC(C([2H])([2H])[2H])(C([2H])([2H])[2H])CS(=O)(=O)CCc2c(c(F)cc3[nH]ccc23)Oc2ccc(F)c(c2)-c2nc1nn2C` (single isomer, unassigned) [Compound 98A, 3-[3-[22,28-difluoro-3-methyl-12,12-dioxo-6,10,10-tris(trideuteriomethyl)-24-oxa-12lambda6-thia-3,4,19,30-tetrazapentacyclo-[23.3.1.12,5.015,23.016,20]triaconta-1(29),2(30),4,15,17,20,22,25,27-nonaen-6-yl]phenyl]propanoic acid], the “DSLS 3D (100 μM ΔT)” value at NBD1 is “C (a value greater than 10 °C and less than or equal to 25 °C is marked “C”)”. The “TECC (AUC, 10 μM)” value on CFTR is listed as “B (a value between 12-20 is marked “B”)”.

For `[2H]C([2H])([2H])C1(c2cccc(CCC(=O)O)c2)CCCC(C([2H])([2H])[2H])(C([2H])([2H])[2H])CS(=O)(=O)CCc2c(c(F)cc3[nH]ccc23)Oc2ccc(F)c(c2)-c2nc1nn2C` (single isomer, unassigned) [Compound 98B, 3-[3-[22,28-difluoro-3-methyl-12,12-dioxo-6,10,10-tris(trideuteriomethyl)-24-oxa-12lambda6-thia-3,4,19,30-tetrazapentacyclo-[23.3.1.12,5.015,23.016,20]triaconta-1(29),2(30),4,15,17,20,22,25,27-nonaen-6-yl]phenyl]propanoic acid], on NBD1, the “DSLS 3D (100 μM ΔT)” value is “C (a value greater than 10 °C and less than or equal to 25 °C is marked “C”)”. In addition, at CFTR, the “TECC (AUC, 10 μM)” value was “C (a value between 20 and 80 is marked “C”)”.

Take `Cn1nc2nc1-c1cc(ccc1F)Oc1c(F)cc3[nH]ccc3c1Cc1ccn(n1)CCS(=O)(=O)CCC2(C)c1cccc(CCC(=O)O)c1` (single isomer, unassigned) [Compound 100A, 3-[3-(24,30-difluoro-3,6-dimethyl-9,9-dioxo-26-oxa-9λ6-thia-3,4,12,21,32,33-hexazahexacyclo[25.3.1.12,5.112,15.017,25.018,22]tritriaconta-1(31),2(33),4,13,15(32),17,19,22,24,27,29-undecaen-6-yl)phenyl]propanoic Acid]: on NBD1, the “DSLS 3D (100 μM ΔT)” value was “C (a value greater than 10 °C and less than or equal to 25 °C is marked “C”)”. Moreover, the “TECC (AUC, 10 μM)” value on CFTR was “A (a TECC value less than 12 is marked “A”)”.

Consider `Cn1nc2nc1-c1cc(ccc1F)Oc1c(F)cc3[nH]ccc3c1Cc1ccn(n1)CCS(=O)(=O)CCC2(C)c1cccc(CCC(=O)O)c1` (single isomer, unassigned) [Compound 100B, 3-[3-(24,30-difluoro-3,6-dimethyl-9,9-dioxo-26-oxa-9λ6-thia-3,4,12,21,32,33-hexazahexacyclo[25.3.1.12,5.112,15.017,25.018,22]tritriaconta-1(31),2(33),4,13,15(32),17,19,22,24,27,29-undecaen-6-yl)phenyl]propanoic Acid], for which the “DSLS 3D (100 μM ΔT)” value at NBD1 is “A (an ΔTagg value less than or equal to 5 °C is marked “A”)”. Also, the “TECC (AUC, 10 μM)” value at CFTR is on record as “A (a TECC value less than 12 is marked “A”)”.

Turning to `Cc1c2nnn1Cc1c(c(F)cc3[nH]ccc13)Oc1ccc(F)c(c1)-c1nc(nn1C)C(C)(c1cccc(CCC(=O)O)c1)CCS(=O)(=O)C2` (single isomer, unassigned) [Compound 101A, 3-[3-(23,29-difluoro-3,6,31-trimethyl-9,9-dioxo-25-oxa-9lambda6-thia-3,4,12,13,14,20,32-heptazahexacyclo[24.3.1.12,5.111,14.016,24.017,21]-dotriaconta-1(30),2(32),4,11(31),12,16,18,21,23,26,28-undecaen-6-yl)phenyl]propanoic Acid], at NBD1, the “DSLS 3D (100 μM ΔT)” value was “A (an ΔTagg value less than or equal to 5 °C is marked “A”)”. Further, at CFTR, the “TECC (AUC, 10 μM)” value is given as “A (a TECC value less than 12 is marked “A”)”.

Regarding `Cc1c2nnn1Cc1c(c(F)cc3[nH]ccc13)Oc1ccc(F)c(c1)-c1nc(nn1C)C(C)(c1cccc(CCC(=O)O)c1)CCS(=O)(=O)C2` (single isomer, unassigned) [Compound 101B, 3-[3-(23,29-difluoro-3,6,31-trimethyl-9,9-dioxo-25-oxa-9lambda6-thia-3,4,12,13,14,20,32-heptazahexacyclo[24.3.1.12,5.111,14.016,24.017,21]-dotriaconta-1(30),2(32),4,11(31),12,16,18,21,23,26,28-undecaen-6-yl)phenyl]propanoic Acid], the “DSLS 3D (100 μM ΔT)” value at NBD1 was “B (a value above 5 °C and less than or equal to 10 °C is marked “B”)”. On CFTR, the “TECC (AUC, 10 μM)” value is on record as “A (a TECC value less than 12 is marked “A”)”.

In the case of `Cn1nc2nc1-c1cc(ccc1F)Oc1c(F)cc3[nH]ccc3c1CCS(=O)(=O)CC(F)(F)C(C)(C)CCC2(C)c1cccc(CCC(=O)O)c1` (single isomer, unassigned) [Compound 102A, 3-[3-[10,10,22,28-tetrafluoro-3,6,9,9-tetramethyl-12,12-dioxo-24-oxa-12lambda6-thia-3,4,19,30-tetrazapentacyclo[23.3.1.12,5.015,23.016,20]-triaconta-1(29),2(30),4,15,17,20,22,25,27-nonaen-6-yl]phenyl]propanoic Acid], the “DSLS 3D (100 μM ΔT)” value at NBD1 was “A (an ΔTagg value less than or equal to 5 °C is marked “A”)”. Moreover, the “TECC (AUC, 10 μM)” value on CFTR is recorded as “A (a TECC value less than 12 is marked “A”)”.

As to `Cn1nc2nc1-c1cc(ccc1F)Oc1c(F)cc3[nH]ccc3c1CCS(=O)(=O)CC(F)(F)C(C)(C)CCC2(C)c1cccc(CCC(=O)O)c1` (single isomer, unassigned) [Compound 102B, 3-[3-[10,10,22,28-tetrafluoro-3,6,9,9-tetramethyl-12,12-dioxo-24-oxa-12lambda6-thia-3,4,19,30-tetrazapentacyclo[23.3.1.12,5.015,23.016,20]triaconta-1(29),2(30),4,15,17,20,22,25,27-nonaen-6-yl]phenyl]propanoic acid], the “DSLS 3D (100 μM ΔT)” value at NBD1 is “B (a value above 5 °C and less than or equal to 10 °C is marked “B”)”. The “TECC (AUC, 10 μM)” value on CFTR is “B (a value between 12-20 is marked “B”)”.

Consider `CC(Cc1cccc(C2(CF)CCCC(C)(C)CS(=O)(=O)CCc3c(c(F)cc4[nH]ccc34)Oc3ccc(F)c(c3)-c3nc2nn3C)c1)C(=O)O` (single isomer, unassigned) [Compound 108A, 3-[3-[22,28-difluoro-6-(fluoromethyl)-3,10,10-trimethyl-12,12-dioxo-24-oxa-12λ6-thia-3,4,19,30-tetrazapentacyclo[23.3.1.12,5.015,23.016,20]triaconta-1(29),2(30),4,15,17,20,22,25,27-nonaen-6-yl]phenyl]-2-methyl-propanoic acid], for which, at NBD1, the “DSLS 3D (100 μM ΔT)” value is “A (an ΔTagg value less than or equal to 5 °C is marked “A”)”. For the same molecule, the “TECC (AUC, 10 μM)” value on CFTR is listed as “A (a TECC value less than 12 is marked “A”)”.

In the case of `CC(Cc1cccc(C2(CF)CCCC(C)(C)CS(=O)(=O)CCc3c(c(F)cc4[nH]ccc34)Oc3ccc(F)c(c3)-c3nc2nn3C)c1)C(=O)O` (single isomer, unassigned) [Compound 108B, 3-[3-[22,28-difluoro-6-(fluoromethyl)-3,10,10-trimethyl-12,12-dioxo-24-oxa-12λ6-thia-3,4,19,30-tetrazapentacyclo[23.3.1.12,5.015,23.016,20]triaconta-1(29),2(30),4,15,17,20,22,25,27-nonaen-6-yl]phenyl]-2-methyl-propanoic acid], the “DSLS 3D (100 μM ΔT)” value at NBD1 was “A (an ΔTagg value less than or equal to 5 °C is marked “A”)”. Also, the “TECC (AUC, 10 μM)” value at CFTR is “C (a value between 20 and 80 is marked “C”)”.

The record behind these values is patent US12649750B2, “Macrocyclic compounds, compositions, and methods of using thereof” (Sionna Therapeutics Inc., priority 2022, dated 2026).
